Experimental data reported in patent US20260274894A1, “CYCLIC POLYPEPTIDE COMPOUND AND USE THEREOF” (BIVISION PHARMACEUTICALS, INC., priority 2023, published 2026).
Numbered stars: 1 amine (or outer) side, 2 acyl side, 3 side chain; on linkers, the order of the positions; unused ones are H or OH. Bridge positions count the residues as written; N and C are the ends. Square brackets hold non-standard residues; d marks the D form. Side chains are listed from the residue outwards. Peptide text beside a SMILES is read from it. * marks the point of attachment. ξ: configuration not given here. NH(CH2)2O(CH2)2NHDOTA = O=C(O)CN1CCN(CC(=O)O)CCN(CC(=O)NCCOCCN*)CCN(CC(=O)O)CC1; X4 = O=C(O)CN1CCN(CC(=O)O)CCN(CC(=O)N2CCc3cc(C(=O)*)ccc3C2)CCN(CC(=O)O)CC1; NH(CH2)5NHDOTA = O=C(O)CN1CCN(CC(=O)O)CCN(CC(=O)NCCCCCN*)CCN(CC(=O)O)CC1; DOTA = O=C(O)CN1CCN(CC(=O)O)CCN(CC(=O)*)CCN(CC(=O)O)CC1; Azetidine3carboxylic = O=C(C1CN([*:1])C1)[*:2]; Pyridine(3,5-bisCH2) = c1ncc(C[*:2])cc1C[*:1]; mXylylene = c1cc(C[*:1])cc(C[*:2])c1; Ethylenediamine = C(CN[*:2])N[*:1]; d(β3hD) = NC(CC(=O)O)CC(=O)O; CH2CH2 = C(C[*:2])[*:1]; Dap = NC[C@H](N)C(=O)O; Hexanoyl = CCCCCC(=O)*; CO = O=C([*:1])[*:2]; ξP = O=C(O)C1CCCN1; Ava = NCCCCC(=O)O; ξC = NC(CS)C(=O)O; NHBu = CCCCN*

Molecular target: T1, FAP protein (Homo sapiens, UniProt Q12884)
T1 construct: purchased Sinobiological
T1 sequence (Q12884 1-760): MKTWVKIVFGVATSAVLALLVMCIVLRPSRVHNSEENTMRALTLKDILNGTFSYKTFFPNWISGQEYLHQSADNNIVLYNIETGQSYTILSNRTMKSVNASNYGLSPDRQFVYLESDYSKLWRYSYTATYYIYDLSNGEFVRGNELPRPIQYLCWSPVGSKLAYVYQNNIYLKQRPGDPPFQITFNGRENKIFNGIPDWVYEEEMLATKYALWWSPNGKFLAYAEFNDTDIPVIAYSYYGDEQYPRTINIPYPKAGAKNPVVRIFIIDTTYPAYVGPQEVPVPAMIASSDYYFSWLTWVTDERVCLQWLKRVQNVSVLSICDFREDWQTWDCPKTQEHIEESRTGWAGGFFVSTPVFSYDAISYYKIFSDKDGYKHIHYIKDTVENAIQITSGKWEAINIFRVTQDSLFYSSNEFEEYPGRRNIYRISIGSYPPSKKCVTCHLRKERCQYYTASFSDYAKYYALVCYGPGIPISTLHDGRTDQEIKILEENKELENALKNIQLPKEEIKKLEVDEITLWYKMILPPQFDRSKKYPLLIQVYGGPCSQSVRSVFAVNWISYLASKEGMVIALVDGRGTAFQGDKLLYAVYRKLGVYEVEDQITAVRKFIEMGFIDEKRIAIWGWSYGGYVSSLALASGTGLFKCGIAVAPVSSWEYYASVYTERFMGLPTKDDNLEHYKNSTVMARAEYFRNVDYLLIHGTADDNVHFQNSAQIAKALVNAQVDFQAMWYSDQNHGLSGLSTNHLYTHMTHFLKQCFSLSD
Experiment: Biacore test of compound affinity to FAP protein
Conditions: Biacore 8K, SA chip, 15° C., 1:1 binding model; read-out: pKD (FAP) (converted)
Procedure: The Biacore 8K (Cytiva) instrument was used to detect ligand binding of the FAP protein (Sinobiological). FAP protein was captured on the SA chip. […] The sensor surface was conditioned by injecting 1M NaCl three consecutive times in 50 mM NaOH. After each ligand injection, additional cleaning was performed using isopropanol in 1M NaCl and 50 mM NaOH (flow path 1 and 2, flow rate of 10 μL/min, injection time of 60 s). […] The analyte was run under the following conditions: analysis temperature of 15° C., analysis step=all set to LMW kinetics; cycle type=single cycle (contact time of 90 s, dissociation time of 1800 s, flow rate of 30 μL/min, flow channels 1 and 2); channel detection=2-1. Data was evaluated using the Biacore Insight Evaluation Software, and the data were fitted to a 1:1 binding model. The Biacore results are shown in Table 2 below: pKD=−Log KD, where KD is the binding affinity of the compound to the FAP protein as measured by Biacore.

| SMILES | Kd [nM] |
| --- | --- |
| CCCCNC(=O)N[C@H]1CSCc2cccc(c2)CSCC(C(=O)N[C@@H](CCC(=O)NCCNC(=O)c2ccc3c(c2)CCN(C(=O)CN2CCN(CC(=O)O)CCN(CC(=O)O)CCN(CC(=O)O)CC2)C3)C(=O)O)NC(=O)[C@H](Cc2ccccc2)NC(=O)[C@H](CCC(N)=O)NC(=O)[C@H]([C@@H](C)O)NC(=O)C2CCCN2C(=O)C2CN(C2)C1=O (stereo partly drawn) [JHDC26, nBu-urea-[Cys(3MeBn)-hhy39-Pro-Thr-Gln-Phe-Cys]-Glu-(EDA-hhy02-DOTA)-OH] ({NHBu-CO}-C[Azetidine3carboxylic][ξP]TQF[ξC]E([Ethylenediamine-X4])-OH; linker 1-7 via mXylylene) | 10 to 100 |
| CCCCCC(=O)N[C@H]1CSCc2cccc(c2)CSCC(C(=O)N[C@@H](CCC(=O)NCCCCCNC(=O)CN2CCN(CC(=O)O)CCN(CC(=O)O)CCN(CC(=O)O)CC2)C(=O)O)NC(=O)[C@H](Cc2ccccc2)NC(=O)[C@H](CCC(N)=O)NC(=O)[C@H]([C@@H](C)O)NC(=O)C2CCCN2C(=O)C2CN(C2)C1=O (stereo partly drawn) [JHDC29, Hex[Cys(3MeBn)-hhy39-Pro-Thr-Gln-Phe-Cys]-Glu-(PDA-DOTA)-OH] (Hexanoyl-C[Azetidine3carboxylic][ξP]TQF[ξC]E(NH(CH2)5NHDOTA)-OH; linker 1-7 via mXylylene) | 10 to 100 |
| CCCCNC(=O)N[C@H]1CSCc2cccc(c2)CSCC(C(=O)N[C@H](CC(=O)O)CC(=O)NCCNC(=O)CN2CCN(CC(=O)O)CCN(CC(=O)O)CCN(CC(=O)O)CC2)NC(=O)[C@H](Cc2ccccc2)NC(=O)[C@H](CCC(N)=O)NC(=O)[C@H]([C@@H](C)O)NC(=O)C2CCCN2C(=O)C2CN(C2)C1=O (stereo partly drawn) [JHDC35, nBu-urea-[Cys(3MeBn)-hhy39-Pro-Thr-Gln-Phe-Cys]-p-Glu-(EDA-DOTA)-OH] ({NHBu-CO}-C[Azetidine3carboxylic][ξP]TQF[ξC][d(β3hD)]-{Ethylenediamine-DOTA}; linker 1-7 via mXylylene) | 10 to 100 |
| CCCCCC(=O)N[C@H]1CSCc2cccc(c2)CSCC(C(=O)N[C@H](CC(=O)O)CC(=O)NCCOCCNC(=O)CN2CCN(CC(=O)O)CCN(CC(=O)O)CCN(CC(=O)O)CC2)NC(=O)[C@H](Cc2ccccc2)NC(=O)[C@H](CCC(N)=O)NC(=O)[C@H]([C@@H](C)O)NC(=O)C2CCCN2C(=O)C2CN(C2)C1=O (stereo partly drawn) [JHDC36, Hex-[Cys(3MeBn)-hhy39-Pro-Thr-Gln-Phe-Cys]-β-Glu-(DAPEG2-DOTA)-OH] (Hexanoyl-C[Azetidine3carboxylic][ξP]TQF[ξC][d(β3hD)]-{NH(CH2)2O(CH2)2NHDOTA}; linker 1-7 via mXylylene) | 10 to 100 |
| CCCCCC(=O)N[C@H]1CSCc2cccc(c2)CSCC(C(=O)N[C@@H](CNC(=O)CCCCNC(=O)CN2CCN(CC(=O)O)CCN(CC(=O)O)CCN(CC(=O)O)CC2)C(=O)O)NC(=O)[C@H](Cc2ccccc2)NC(=O)[C@H](CCC(N)=O)NC(=O)[C@H]([C@@H](C)O)NC(=O)C2CCCN2C(=O)C2CN(C2)C1=O (stereo partly drawn) [JHDC40, Hex-[Cys(3MeBn)-hhy39-Pro-Thr-Gln-Phe-Cys]-DAPA-(APTA-DOTA)-OH] (Hexanoyl-C[Azetidine3carboxylic][ξP]TQF[ξC][Dap]([Ava-DOTA])-OH; linker 1-7 via mXylylene) | 10 to 100 |

Results, then the molecule that gave them:

| Kd [nM] | SMILES |
| --- | --- |
| 10 to 100 | CCCCCC(=O)N[C@H]1CSCCSCC(C(=O)N[C@@H](CCC(=O)NCCOCCNC(=O)CN2CCN(CC(=O)O)CCN(CC(=O)O)CCN(CC(=O)O)CC2)C(=O)O)NC(=O)[C@H](Cc2ccccc2)NC(=O)[C@H](CCC(N)=O)NC(=O)[C@H]([C@@H](C)O)NC(=O)C2CCCN2C(=O)C2CN(C2)C1=O (stereo partly drawn) [JHDC27, Hex[Cys(ethylene)-hhy39-Pro-Thr-Gln-Phe-Cys]-Glu-(DAPEG2-DOTA)-OH] (Hexanoyl-C[Azetidine3carboxylic][ξP]TQF[ξC]E(NH(CH2)2O(CH2)2NHDOTA)-OH; linker 1-7 via CH2CH2) |
| 10 to 100 | CCCCNC(=O)N[C@H]1CSCc2cccc(c2)CSCC(C(=O)N[C@@H](CCC(=O)NCCCCCNC(=O)CN2CCN(CC(=O)O)CCN(CC(=O)O)CCN(CC(=O)O)CC2)C(=O)O)NC(=O)[C@H](Cc2ccccc2)NC(=O)[C@H](CCC(N)=O)NC(=O)[C@H]([C@@H](C)O)NC(=O)C2CCCN2C(=O)C2CN(C2)C1=O (stereo partly drawn) [JHDC28, nBu-urea-[Cys(3MeBn)-hhy39-Pro-Thr-Gln-Phe-Cys]-Glu-(PDA-DOTA)-OH] ({NHBu-CO}-C[Azetidine3carboxylic][ξP]TQF[ξC]E(NH(CH2)5NHDOTA)-OH; linker 1-7 via mXylylene) |
| 10 to 100 | CCCCCC(=O)N[C@H]1CSSCC(C(=O)N[C@@H](CCC(=O)NCCOCCNC(=O)CN2CCN(CC(=O)O)CCN(CC(=O)O)CCN(CC(=O)O)CC2)C(=O)O)NC(=O)[C@H](Cc2ccccc2)NC(=O)[C@H](CCC(N)=O)NC(=O)[C@H]([C@@H](C)O)NC(=O)C2CCCN2C(=O)C2CN(C2)C1=O (stereo partly drawn) [JHDC30, Hex[Cys(SS)-hhy39-Pro-Thr-Gln-Phe-Cys]-Glu-(DAPEG2-DOTA)-OH] (Hexanoyl-C[Azetidine3carboxylic][ξP]TQF[ξC]E(NH(CH2)2O(CH2)2NHDOTA)-OH; disulfide 1-7) |
| 10 to 100 | CCCCNC(=O)N[C@H]1CSSCC(C(=O)N[C@@H](CCC(=O)NCCOCCNC(=O)CN2CCN(CC(=O)O)CCN(CC(=O)O)CCN(CC(=O)O)CC2)C(=O)O)NC(=O)[C@H](Cc2ccccc2)NC(=O)[C@H](CCC(N)=O)NC(=O)[C@H]([C@@H](C)O)NC(=O)C2CCCN2C(=O)C2CN(C2)C1=O (stereo partly drawn) [JHDC31, nBu-urea-[Cys(SS)-hhy39-Pro-Thr-Gln-Phe-Cys]-Glu-(DAPEG2-DOTA)-OH] ({NHBu-CO}-C[Azetidine3carboxylic][ξP]TQF[ξC]E(NH(CH2)2O(CH2)2NHDOTA)-OH; disulfide 1-7) |
| 10 to 100 | CCCCCC(=O)N[C@H]1CSCc2cncc(c2)CSCC(C(=O)N[C@@H](CCC(=O)NCCOCCNC(=O)CN2CCN(CC(=O)O)CCN(CC(=O)O)CCN(CC(=O)O)CC2)C(=O)O)NC(=O)[C@H](Cc2ccccc2)NC(=O)[C@H](CCC(N)=O)NC(=O)[C@H]([C@@H](C)O)NC(=O)C2CCCN2C(=O)C2CN(C2)C1=O (stereo partly drawn) [JHDC32, Hex[Cys(3MePy)-hhy39-Pro-Thr-Gln-Phe-Cys]-Glu-(DAPEG2-DOTA)-OH] (Hexanoyl-C[Azetidine3carboxylic][ξP]TQF[ξC]E(NH(CH2)2O(CH2)2NHDOTA)-OH; linker 1-7 via Pyridine(3,5-bisCH2)) |
| 10 to 100 | CCCCNC(=O)N[C@H]1CSCc2cncc(c2)CSCC(C(=O)N[C@@H](CCC(=O)NCCOCCNC(=O)CN2CCN(CC(=O)O)CCN(CC(=O)O)CCN(CC(=O)O)CC2)C(=O)O)NC(=O)[C@H](Cc2ccccc2)NC(=O)[C@H](CCC(N)=O)NC(=O)[C@H]([C@@H](C)O)NC(=O)C2CCCN2C(=O)C2CN(C2)C1=O (stereo partly drawn) [JHDC33, nBu-urea-[Cys(3MePy)-hhy39-Pro-Thr-Gln-Phe-Cys]-Glu-(DAPEG2-DOTA)-OH] ({NHBu-CO}-C[Azetidine3carboxylic][ξP]TQF[ξC]E(NH(CH2)2O(CH2)2NHDOTA)-OH; linker 1-7 via Pyridine(3,5-bisCH2)) |
| 10 to 100 | CCCCNC(=O)N[C@H]1CSCc2cccc(c2)CSCC(C(=O)N[C@H](CC(=O)O)CC(=O)NCCOCCNC(=O)CN2CCN(CC(=O)O)CCN(CC(=O)O)CCN(CC(=O)O)CC2)NC(=O)[C@H](Cc2ccccc2)NC(=O)[C@H](CCC(N)=O)NC(=O)[C@H]([C@@H](C)O)NC(=O)C2CCCN2C(=O)C2CN(C2)C1=O (stereo partly drawn) [JHDC34, nBu-urea-[Cys(3MeBn)-hhy39-Pro-Thr-Gln-Phe-Cys]-p-Glu-(DAPEG2-DOTA)-OH] ({NHBu-CO}-C[Azetidine3carboxylic][ξP]TQF[ξC][d(β3hD)]-{NH(CH2)2O(CH2)2NHDOTA}; linker 1-7 via mXylylene) |
